Assay in all cases: Cysteine liganding, probe competition
What all share (format): binding

The target of assay [1] is T1, TRIM65 Tripartite motif-containing protein 65 (Homo sapiens, UniProt Q6PJ69).
T1 construct: Cells were resuspended in cold PBS on ice and sonicated with a probe sonicator to achieve lysis; endogenous in cells
T1 sequence (Q6PJ69 1-517): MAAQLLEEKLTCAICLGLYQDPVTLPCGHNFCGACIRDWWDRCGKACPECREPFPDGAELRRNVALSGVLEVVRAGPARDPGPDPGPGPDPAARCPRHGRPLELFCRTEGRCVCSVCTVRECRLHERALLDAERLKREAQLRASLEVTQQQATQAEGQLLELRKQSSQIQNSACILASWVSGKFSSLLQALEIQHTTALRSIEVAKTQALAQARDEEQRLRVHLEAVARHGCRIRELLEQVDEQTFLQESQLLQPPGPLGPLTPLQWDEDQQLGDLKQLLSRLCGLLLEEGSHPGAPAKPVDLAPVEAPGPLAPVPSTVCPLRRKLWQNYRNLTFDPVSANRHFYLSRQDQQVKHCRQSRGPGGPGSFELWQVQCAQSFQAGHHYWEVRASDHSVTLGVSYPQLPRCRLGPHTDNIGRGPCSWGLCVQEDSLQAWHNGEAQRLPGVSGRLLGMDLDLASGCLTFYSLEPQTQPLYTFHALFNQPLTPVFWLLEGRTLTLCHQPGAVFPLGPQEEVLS
The method in brief: (§1)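 Probe competition in native proteome: 5 mg/ml lysate, compound 1 hr 25° C, then desthiobiotin iodoacetamide (10 mM stock) 1 hr 25° C; acetone ppt, urea/DTT reduction, iodoacetamide alkylation, trypsin, streptavidin pull-down.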

The target of assay [2] is T2, MAPK10 Mitogen-activated protein kinase 10 (Homo sapiens, UniProt P53779).
T2 construct: Cells were resuspended in cold PBS on ice and sonicated with a probe sonicator to achieve lysis; endogenous in cells
The conditions noted are these: for 100 Max / 100 ave / 500 ave / 500 Max: uniprot P53779; for 500 Max: in % (unit assumed). In short, it runs like this:
as §1

In assay [3] the target is T3, IDH2 Isocitrate dehydrogenase (Homo sapiens, UniProt P48735).
T3 construct: Cells were resuspended in cold PBS on ice and sonicated with a probe sonicator to achieve lysis; endogenous in cells
T3 sequence (P48735 40-452): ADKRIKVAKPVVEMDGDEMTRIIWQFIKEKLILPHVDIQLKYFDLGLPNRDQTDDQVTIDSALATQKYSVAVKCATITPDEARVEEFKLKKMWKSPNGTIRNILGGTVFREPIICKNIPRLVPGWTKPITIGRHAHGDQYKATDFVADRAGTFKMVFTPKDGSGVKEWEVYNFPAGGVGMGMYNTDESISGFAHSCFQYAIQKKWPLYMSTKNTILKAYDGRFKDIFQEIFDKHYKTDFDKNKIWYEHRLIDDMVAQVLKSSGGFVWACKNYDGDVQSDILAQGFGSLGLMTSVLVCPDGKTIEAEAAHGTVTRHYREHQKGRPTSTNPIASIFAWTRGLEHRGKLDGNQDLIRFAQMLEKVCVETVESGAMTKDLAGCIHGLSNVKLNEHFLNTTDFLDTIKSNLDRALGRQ
The method in brief: as §1

The values below come from patent US20200239530A1, “COMPOUNDS AND METHODS OF MODULATING PROTEIN DEGRADATION” (Vividion Therapeutics, Inc., priority 2017, published 2020).

T2 sequence (P53779 whole entry): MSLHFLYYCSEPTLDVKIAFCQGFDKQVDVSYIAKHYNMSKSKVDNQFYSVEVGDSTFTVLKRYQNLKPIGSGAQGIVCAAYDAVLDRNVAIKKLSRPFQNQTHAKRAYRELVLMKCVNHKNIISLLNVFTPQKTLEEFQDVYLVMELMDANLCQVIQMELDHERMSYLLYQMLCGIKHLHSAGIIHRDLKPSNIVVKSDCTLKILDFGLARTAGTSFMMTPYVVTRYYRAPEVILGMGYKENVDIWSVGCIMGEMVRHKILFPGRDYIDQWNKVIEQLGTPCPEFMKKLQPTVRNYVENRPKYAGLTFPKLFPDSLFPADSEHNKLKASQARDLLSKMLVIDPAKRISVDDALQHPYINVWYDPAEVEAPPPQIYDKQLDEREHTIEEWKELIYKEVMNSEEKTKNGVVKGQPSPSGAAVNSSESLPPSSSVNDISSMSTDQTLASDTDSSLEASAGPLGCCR

In the case of `O=C(CCl)Nc1cc(C(F)(F)F)cc(C(F)(F)F)c1` [KBO3], in assay [1] (uniprot Q6PJ69), the “100 Max” value is 35.1, the 100 ave worked out at 19.4, the “500 Max” value is 70.9 and the 500 ave stood at 60.2. In assay [2], the “100 Max” value was 17.22, the 100 ave came out at 12.33, the 500 ave is given as 40.875 and the “500 Max” value amounted to 44.06. In assay [3] (uniprot P48735), the “100 Max” value is 63.35, the 100 ave is reported as 43.06, the “500 Max” value is listed as 73.43 and the 500 ave is 70.11.
For `COc1ccc2c(c1)CCCN2C(=O)CCl` [KB02], the Liganded entry in assay [1] (TRIM65 Res# 320, uniprot Q6PJ69) is reported as “YES”. Besides, the Liganded entry in assay [2] (MAPK10 Res# 283, uniprot P53779) is given as “YES”. Further, in assay [2], the “100 Max” value turned out to be 44.42, the 100 ave turned out to be 26.11, the 500 ave was 76.89 and the “500 Max” value worked out at 78.63. The Liganded result in assay [3] (IDH2 Res# 154, uniprot P48735) is given as “YES”.
